Measured values as given in patent US6489307B1, “Antisense compositions targeted to β1-adrenoceptor-specific mRNA and methods of use” (University of Florida, priority 1998, dated 2002).
“And” between values parts separate entries of the source, which are not always exact repeats. Equal values may be shown once. “Also recorded” adds a separate entry of the source.

What was measured:
[1] = system: SHRs; test: Telemetric monitoring of conscious SHRs during dobutamine infusion; type: in vivo, rat (SHR)
Description: Two days after catherization of the jugular vein, control values were taken and 1 mg/kg β1-AS-ODN was injected. 48 hr later, rats were tested for the effect of β1-AS-ODN. The rats were allowed to recover until all the cardiovascular parameters returned to control values. […] For β1-stimulation, SHRs were infused with dobutamine (β1-selective agonist) through a jugular vein catheter at 5, 10, 20, and 40 μg·kg^−1·min.^−1. Each dose was given for 5 min. continuously and at 1-hr intervals until all the cardiovascular parameters returned to baseline values so as to avoid the effect of tachyphylaxis. BP and HR were sampled every 1 min. dP/dtmax was calculated from the slope of the rising pulse-pressure curve and determined every 1 min. The difference between values at each dose and baseline was denoted as Δ.
Two days after catheterization of jugular vein, control values were taken and 1 mg/kg β1-AS-ODN was injected. Forty-eight hr later, rats were tested for the effect of β1-AS-ODN. The rats were allowed to recover until all the cardiovascular parameters returned to control values. […] For β1-stimulation, SHR were infused with dobutamine (β1-selective agonist) through jugular vein catheter at 5, 10, 20, 40 μg/kg/min. Each dose was given for 5 min continuously and at 1-hr intervals until all cardiovascular parameters returned to baseline so as to avoid the effect of tachyphylaxis. BP and HR were sampled every min. dP/dtmax was calculated from the slope of the rising pulse pressure curve and determined every min. The difference between values at each dose and baseline was denoted as Δ.

[2] = system: SHRs; type: in vivo, rat (SHR)
Description: (§1) Each rat cage was placed on a receiver (RLA 1020, Data Sciences, St. Paul, Minn.) for measurement of cardiovascular parameters. Data were collected with a computer-based data acquisition program (Dataquest Lab-PRO3.0; Data Sciences). BP and HR were measured every 10 min. and averaged every 1 to 24 hrs. Before treatment, SHRs were monitored for a week to get a stable baseline.
as §1, with “(RLA1020,” for “(RLA 1020,”, “Sciences)” for “Sciences, St. Paul, Minn.)”, “LabPRO3.0;” for “Lab-PRO3.0;”, “min” for “min.”, “hr.” for “hrs.”, “SHR” for “SHRs”

[3] = system: isolated rat heart; test: Isolated perfused heart model, myocardial ischemia-reperfusion; type: in vivo, Sprague-Dawley rats; settings: 2 mg/kg 6 hr before
Description: Male Sprague-Dawley rats weighing 200-250 g were injected intravenously with either AS-ODNs (n=7) or IN-ODNs (n=7) at a dose of 200 μg/rat 4 days before excising the hearts. DOTAP/DOPE liposomes (700 μg/rat) were given along with ODNs.
The hearts were excised rapidly and placed in ice-cold Kreb-Henseleit buffer (mmol/L: NaCl 118, KCl 4.7, KH2PO4 1.2, MgSO4 1.2, CaCl2 1.25, NaHCO3 25, and glucose 11, pH 7.4). Within one min, the hearts were transferred to an isolated perfusion apparatus and perfused via the aorta with oxygen-saturated (95% O2+5% CO2) Kreb-Henseleit buffer kept at 37° C. with the use of a MasterFlex pump (model 7015-21, Cole-Palmer Instrument Co.) according to the modified Langendroff procedure (Yang et al., 1998; Neely and Rovetto, 1975). The heart was placed in a semi-closed circulating water-warmed (37° C.) air chamber, paced atrially with a Medtronic 5320 pacemaker at a rate of 300 bpm, and perfused at a constant flow (5.5-6.0 ml/per min). Coronary perfusion pressure (CPP) was measured via a catheter placed just proximal to the aorta and connected to a Gould Statham P23ID pressure transducer. A latex balloon filled with water and connected to a Gould Statham P23ID pressure transducer was inserted in the left ventricle through the left atrium to measure left ventricular end-diastolic pressure (LVEDP), left ventricular systolic pressure (LVSP), and developed left ventricular pressure (dLVP) (dLVP=LVSP−LVEDP). LVEDP during equilibration was set at 5 to 7 mmHg. All measurements were continuously recorded on a 4-channel record (Astro-Med).
Six hearts from saline-treated rats were continuously perfused with Kreb-Henseleit buffer for 80 min and served as sham control. Hearts from other rats, after 20 min of equilibration, were subjected to 30 min of ischemia followed by 30 min of reperfusion. After completion of the study, hearts were frozen in liquid-nitrogen for β1-AR analysis by binding assay, β1-AR protein analyses by Western blot, β1-AR mRNA analysis by reverse transcription-polymerase chain reaction (RT-PCR™), and measurement of MDA.
The protective effects of β1-AS-ODNs were tested in a rat model of myocardial ischemia-reperfusion. Five groups of SD rats were studied. Sham controls (n=6) were injected with saline and perfused continuously for 80 min without ischemia/reperfusion (I/R). In other groups, hearts were perfused for 20 min and subjected to global ischemia (30 min) followed by reperfusion (30 min). […] AS-ODN+I/R (n=7) or INV-ODN+I/R (n=7) were injected iv. with 1 mg/kg β1-AS-ODN or INV-ODN 4 days before the I/R study was performed.

[4] = system: MDA (lipid peroxidation); test: MDA levels in myocardium after ischemia-reperfusion; type: in vivo, Sprague-Dawley rats; settings: pretreatment before ischemia-reperfusion; vs saline
Description: Malondialdehyde (MDA) levels in myocardium were measured in duplicate by a modification of the method of Ohkawa et al., (1979). Briefly, the ventricular tissues were homogenized. The assay mixture consisted of 0.1 ml of the tissue homogenate, 0.4 ml of 0.9% NaCl, 0.5 ml of 3% sodium dodecylsulfate, 3 ml of TBA (thiobarbituric acid reagent, containing equal parts of 0.8% aqueous thiobarbituric acid and acetic acid) and was heated for 75 min at 95° C. Thereafter, 1 ml cold 0.9% NaCl was added to the mixture, which was cooled and extracted with 5 ml n-butanol. After centrifugation at 3,000 rpm for 15 min, the butanol phase was assayed spectrophotometrically at 532 nm. Tetramethoxypropane (in amounts of 0, 0.1, 0.2, 0.4, 0.8, 1.0 nmole) served as external standard. MDA levels in myocardium were expressed in μmol/g tissue.

[5] = system: β1-AR protein; test: Western blot of β1-AR protein in myocardium; type: in vivo, Sprague-Dawley rats; settings: Western analysis
Description: Myocardial tissues were homogenized and lysed in boiling lysis buffer (1% SDS, 0.1% Triton X-100®, and 10 mmol/L Tris-HCl, pH 7.4) and centrifuged at 10,000 RPM for 30 minutes at 4° C. The lysate protein from myocardial tissues (20 μg/lane) was separated by 8% SDS-PAGE using a Bio-Rad Mini-Protean cell, transferred to nitrocellulose membrane (Amersham). After incubation in blocking solution (4% non-fat milk, Sigma), membranes were incubated with 1:1000 dilation primary antibody (polycolonal antibody to β1-AR, Santa Cruz Biotechnology) for overnight at 4° C. Membranes were washed and incubated with 1:2000 dilution second antibody (Amersham) for one hr. The membranes were detected with the ECL system, as described previously (Yang et al, 1998; Li et al., 1999).

[6] = system: β1-AR mRNA; test: RT-PCR of β1-AR mRNA in myocardium; type: in vivo, Sprague-Dawley rats; settings: adjusted for GAPDH
Description: Total RNA was isolated from rat myocardium with the single step acid-guanidinum thiocyanate-phenol-chloroform method and quantified (Chomcznski and Sacchi, 1987). One μg of total RNA was reverse transcribed with oligo-dT (Promega) and M-MLV reverse transcriptase (Promega) at 37° C. for one hr. 1.5 μl of RT material was amplified with Taq DNA polymerase (Promega) using a primer pair specific to β1-AR:
PCR™ product was 432 base pairs. For PCR, 35 cycles were used at 95° C. for one minute, 60° C. for one minute, and 72° C. for one min. The RT-PCR™ amplified samples were visualized on 1.8% agarose gels using ethidium bromide. A primer pair of rat GAPDH was used as control:
For PCR™, 35 cycles were used at 95° C. for one min, 60° C. for one min, 72° C. for one min. PCR™ product was 504 base pairs. Relative intensity of bands of interest were analyzed by NSF-300G Scanner (Microtek) (Yang et al., 1998; Li et al., 1999).

| SMILES | effect on SBP ([1]; higher infusion speed) | elevation of SBP ([1]; low infusion speed) | basal (resting) HR ([1]; 1 mg/kg, control 365±8) [bpm] | time until inotropic and chronotropic effects of dobutamine returned to control levels ([1]; after 1 mg/kg administration) [h] | duration of hypotensive effect ([2]; 1 mg/kg i.v.) [h] | onset of hypotensive effect after injection ([2]; 1 mg/kg i.v.) [min] | duration of action ([2]; comparison with β1-AS-ODN) | bradycardia ([2]; rat, in vivo) | increase in CPP and LVEDP induced by ischemia-reperfusion [3] | ischemia-reperfusion-induced change in LVSP and dLVP [3] | increase in MDA levels in the myocardium [4] | ischemia-reperfusion-mediated increase in β1-AR protein expression [5] | increase of mRNA for β1-AR in myocardium [6] |
| --- | --- | --- | --- | --- | --- | --- | --- | --- | --- | --- | --- | --- | --- |
| CC(CCc1ccc(O)cc1)NCCc1ccc(O)c(O)c1 (stereo not shown) [Dobutamine, dobutamine] | reduced SBP; also recorded: reduced SPB | 5 to 8 mm Hg and 5-8 mm Hg |  |  |  |  |  |  |  |  |  |  |  |
| CC(C)NCC(O)COc1ccc(CC(N)=O)cc1 (stereo not shown) [atenolol, reference compound] |  |  | 295±12 | ≤ 24 | 10 | 20 | less than 1 day | appreciable bradycardia | reduced the increase | modestly attenuated | attenuated the increase | no effect | not significantly affected |
